These results are taken from ChEMBL document CHEMBL1142892, “Synthesis and antitumor activity of indolylpyrimidines: marine natural product meridianin D analogues” (Bioorg Med Chem, 2007).

Structures are written as SMILES. Values after ≈ are worked out from the molar mass of the structure shown. Active and inactive are the calls of the source. The calls are words filed in the database; no cut-off is given here.

Format in all cases: functional, cell-based
Test [1] concerns U-251. Put plainly: Cytotoxicity against human U251 cells after 48 hrs by SRB assay.
The test system of test [2] is HepG2. Put plainly: Cytotoxicity against human HEPG2 cells after 48 hrs by SRB assay. In general terms: In SRB staining, fixed cells bind dye roughly in proportion to their protein.
Test [3] concerns MCF7. The test is described as follows: Cytotoxicity against human MCF7 after 48 hrs cells by SRB assay.
Test [4] relates to HeLa. The test is described as follows: Cytotoxicity against human HeLa cells after 48 hrs by SRB assay.

In the case of `Nc1nccc(-c2c[nH]c3ccccc23)n1`, the outcome in test [1] and in test [2] was inactive.
For orientation: IC50 means the concentration that inhibits the measured activity by half. Consider `Nc1ncc(C(=O)O)c(-c2c[nH]c3ccccc23)n1`, for which the result in test [1] and in test [2] was inactive. Moreover, 0.75 µg/mL (≈ 2.95 µM) corresponded to half-maximal inhibition in test [3] (IC50).
Turning to `N#Cc1cnc(N)nc1-c1c[nH]c2ccccc12`, the result in test [1] and in test [2] was inactive. Also, the results for the IC50 in test [4] and in test [3] were 2.65 µg/mL (≈ 11.3 µM) and 0.85 µg/mL (≈ 3.61 µM), respectively.
In the case of `N/N=C(\N)c1cnc(N)nc1-c1c[nH]c2ccccc12`, the result in test [1] and in test [2] was inactive. Also, it took 0.25 µg/mL (≈ 0.935 µM) to reach half-maximal inhibition in test [3] (IC50).
